The text below walks through data of a melting point compilation (Tetko et al.; mined from patent text by program, amines drawn as free bases though some values may be those of a salt).

In general, melting point refers to the temperature, or range, at which the solid turns liquid.

Compound `O=CCC1Cc2ccc(Cl)cc2C1=O` (racemic) returned a melting point of 80 °C. As for `c1ccc2c(c1)[nH]c1c2nc2ncccn21`, the figure is 96 to 98 °C; as for `CN(C)C(=O)c1ncccc1OC1SCC(O)C(O)C1O` (centres undefined), 80 to 85 °C. In the case of `CC(Cl)CC(C)Oc1ccc(-c2ccc(C(=O)Oc3ccc(C#N)cc3)cc2)cc1` (centres undefined) it was 104 °C. As for `COC(=O)c1ccc(Cl)cc1NC(=O)CSc1ccccc1C`, the figure is 88 to 89 °C; as for `COc1cc2cc3c(Nc4ccc(OCc5ccccc5)c(Cl)c4)c(C#N)cnc3cc2cc1OCCCl`, 182 to 185 °C; as for `O=C1CCCN(C(=O)c2ccc([N+](=O)[O-])cc2Cl)c2ccsc21`, 180 to 185 °C. In the case of `O=S(=O)(c1ccc(Cl)cc1)N1CCC[C@@H](Nc2nccc(-c3c(-c4cccc(O)c4)nc4sccn34)n2)C1`, the melting point fell in the range of 174 to 177 °C.

Take `COc1ccc2c(c1)cc(Cc1cc3cc(OC)ccc3n1S(=O)(=O)c1ccccc1)n2S(=O)(=O)c1ccccc1`: the melting point lay within 159 to 160 °C. As for `CN(Cc1cccc2c1C(=O)N(C1CCC(=O)NC1=O)C2=O)C(=O)Nc1ccccc1` (centres undefined), the figure is 226 to 228 °C; as for `CC1(C)CCC(C)(C)c2cc(Sc3ccc(C(=O)O)cc3)ccc21`, 187 to 188 °C.

The compound `O=c1[nH]c2ccc(F)c(F)c2c(=O)o1` showed a melting point above 240 °C. In the case of `NC(=O)[C@@H]1[C@H](Nc2c(Br)cnc3[nH]c(-c4ccc(N5CCOCC5)nc4)nc23)[C@H]2C=C[C@@H]1C2` it was 288 to 290 °C; in that of `CC(OCc1ccc2ccccc2c1)(C(N)=O)C(F)(F)F` (centres undefined), 111 to 112 °C. In the case of `COC(=O)CC1CCc2cc(OC)ccc2C1=O` (centres undefined) it was 110 to 112 °C; in that of `COc1ccnc(C(C)O)c1` (single isomer, unassigned; (+)), 92 °C; in that of `Cc1c(Cl)cc(C(=O)C=[N+]=[N-])cc1S(N)(=O)=O`, 174 to 176 °C.

As to `CCn1cc(C(=O)O)c(=O)c2c(C)c(F)c(F)cc21`, the melting point is above 300 °C. Compound `N[C@H]1C[C@H]2[C@H](C(=O)O)[C@H]2[C@]1(N)C(=O)O` registered a melting point above 250 °C.

Consider `CN(C)c1nc2sc3c(NCCc4c[nH]cn4)ncnc3c2c2c1CCC2(C)C`, for which the melting point fell in the range of 261 to 262 °C. As for `CC(C)(C)c1cc(-c2nc3ncccc3o2)cc(C(C)(C)C)c1`, the figure is 154 to 156 °C; as for `N#Cc1cnc2cc(/C=C/CCCCN3CCOCC3)ccc2c1Nc1ccc(Cl)cc1Cl`, 139 to 140 °C. In the case of `O=c1c2cc(Cl)ccc2nc2n1CCC2=Cc1ccccc1` it was 225 to 227 °C; in that of `O=C(c1ccc(F)cc1)c1ccc(OC(F)(F)F)cc1`, 42 to 43 °C. `O=c1[nH]c2ccccc2c2c(CCO)n(-c3ccccc3)nc12` registered a melting point of 310 to 312 °C. As for `COc1ccc(N2C(=O)NC(=O)C23CCCCC3)cc1`, the figure is 203 to 205 °C; as for `Cc1[nH]nc(CN2CCN(Cc3c[nH]c4ncccc34)CC2)c1-c1ccccc1`, 154 to 156 °C. For `CCCn1cnc2c1c1nnc(-c3ccccc3)n1c(=O)n2CCC`, the melting point lay in the range of 215 to 217 °C. In the case of `Cc1cc(-n2cncn2)c2cccc(C)c2n1` it was 99 to 100 °C.

As for `CCn1cc(C(=O)O)c(=O)c2cc(Cl)c(N3CCN(c4ccccc4)CC3)cc21`, the melting point was 234 to 235 °C. As for `O=C(CN1CCC(Cc2ccc(F)cc2)CC1)Nc1ccc2c(c1)CC(=O)N2`, the figure is 178 to 180 °C; as for `COc1ccc(Nc2nc(Cl)cc(NC3CCCCCC3)n2)cc1Cl`, 74 to 76 °C. On to `CCCCc1nc2c(N)nc3ccccc3c2n1CCCNC(=S)NCCC`, for which the melting point lay within 144 to 146 °C. In the case of `CN(C)C=CC(=O)c1cccnc1` it was 66 to 67 °C; in that of `CCOC(=O)c1sc2ccc(OC)cc2c1OCC`, 42 to 43 °C.

Turning to `O=C(O)C(Cc1nnn[nH]1)NC(=O)C(CS)C(F)(F)F` (centres undefined), the melting point was in the range of 158 to 161 °C. In the case of `COC1CCN(S(=O)(=O)c2ccc(S(=O)(=O)Cl)cc2C(F)(F)F)CC1` it was 117 to 119 °C. In the case of `CN(Cc1nnc2n1-c1ccc(Cl)cc1C(c1ccccc1)=NC2)CC1CC1` it was 171 to 176 °C; in that of `COCCOc1cc2ncnc(NC3=CC(=O)C(N4CCOCC4)=CC3=O)c2cc1OC`, 239 to 243 °C. Take `CNC(=O)c1cccc(NC(=O)COc2ccccc2Cl)c1`: the melting point was in the range of 172 to 173 °C.

The compound `CC(=O)OC1CSC(Oc2ccc(-c3ccnc(F)c3)nc2)C(OC(C)=O)C1OC(C)=O` (centres undefined) registered a melting point of 179 °C.

In the case of `CC(C)CC(C=O)NC(=O)C(Cc1c[nH]cn1)NC(=O)C1Cc2c([nH]c3ccccc23)CN1C(=O)OCc1ccccc1` (centres undefined), the melting point fell in the range of 126 to 130 °C. As for `COc1ccc(CC(=O)NC(NC(=NC#N)c2cccc3ncccc23)C(C)(C)C)cc1OC` (centres undefined), the figure is 203 to 205 °C; as for `O=C(C(=O)c1cnn(CC(F)(F)F)c1)c1cccc(Br)c1`, 66 to 67 °C; as for `Cn1nc(OCCCc2cc(-c3ccc(C(F)(F)F)cc3)no2)cc1C(=O)O`, 162 to 163 °C.

In the case of `O=C(O)COc1ccc(C2=CC(=O)CCC2)c(Cl)c1Cl`, the melting point is 197 to 198 °C. In the case of `Clc1ccc([C@H]2C[C@@H]3CC[C@@H]4[C@H]2C(=NOCc2ccccc2)CN34)cc1Cl` it was 72 to 74 °C. As for `C=C1CCCCCCCSC[C@@H](C(=O)OCC)NC1=O`, the figure is 146 to 147 °C; as for `CN(c1ccc(CCNCC(O)COc2ccc(OCc3ccccc3)cc2)cc1)C1SC(=O)NC1=O` (centres undefined), 51 to 53 °C; as for `CC1(C)OC(=O)Nc2ccc(-c3ccc(Cl)cc3)cc21`, 255 to 257 °C.

Take `CCOc1cc(OCCOCc2ccccc2)cc2c1C(=O)N(COC(=O)c1c(Cl)cccc1Cl)S2(=O)=O`: the melting point was in the range of 121 to 122 °C.

Regarding `COc1ccc(-c2ccc(N(C)C)cc2)cc1C=O`, the melting point was in the range of 113 to 115 °C. `CCCCCNC(=O)c1cn2nc(N3CCN(C(=O)c4ccccc4C(F)(F)F)CC3)ccc2n1` came in with a melting point of 179 to 180 °C. As for `O=C(NCCOc1ccc(-c2noc(=O)[nH]2)cc1)C1Cc2ccccc2N1S(=O)(=O)c1ccc(-c2cccc(C(F)(F)F)c2)cc1` (centres undefined), the figure is 123 to 130 °C; as for `O=C1c2ccccc2-n2cnc(-c3noc(CCl)n3)c2[C@@H]2CCCN12`, 205 to 206 °C; as for `COc1cc(-c2ccc(O)c(C34CC5CC(CC(C5)C3)C4)c2)cc(C=C2SC(N3CCOCC3)=NC2=O)c1O`, 310 to 312 °C. In the case of `COC(=O)c1cc(Cl)c(OCCn2ccnc2)s1` it was 97 to 99 °C; in that of `O=C(O)CN(CCN(CC(=O)O)C(COCc1ccccc1)C(=O)O)C(COCc1ccccc1)C(=O)O` (centres undefined), 177 °C.

`Cc1ccc(N)c(C(=S)NCC2CC2)c1` yielded a melting point of 124 °C.

For `CCCCCCCCCCc1c(C)c(C)c(-c2n[nH]c3cc(C(C)(C)C)nn23)c(C)c1C`, the melting point is 194 to 195 °C. `Cn1ncc2c(=O)n3c(nc21)SC(C(=O)O)C3` (centres undefined): the melting point fell in the range of 274 to 276 °C. As for `CC(C)n1nc(-c2c(-c3ccccc3)nn3ccc(OCCN4CCOCC4)cc23)ccc1=O`, the melting point lay within 160 to 162 °C. As for `O=C(c1ccccc1Nc1ccncc1)N1CCCCC1`, the figure is 153 to 156 °C; as for `O=C(OC1N=C(c2ccccc2)c2ccccc2NC1=O)c1cc2ccccc2[nH]1` (racemic), 271 to 273 °C. Turning to `CCOC(=O)CC[C@@H](C(=O)OCC)N1C(=O)c2ccc([N+](=O)[O-])cc2C1=O`, the melting point lay within 65.5 to 66.5 °C.

Regarding `CCS(=O)(=O)c1ccc(-c2coc3ccc(-c4nnc(C)o4)cc23)c(Cl)c1`, the melting point lay in the range of 180 to 181 °C. In the case of `CN(C)CCNC(=O)Cn1c(-c2ccc(Cl)cc2)nc2cccnc21` it was 195 to 196 °C; in that of `COc1cc(OC)c2c(=O)[nH]c(-c3ccc(CCC(=O)O)cc3)nc2c1`, 251 °C. As for `C=C(CC(C)C)C(=O)NCCCCCC(N)=O`, the figure is 76 to 82 °C. `CCn1nc(-c2ccccc2)c(C(C)=O)c(Nc2cccc(Cl)c2)c1=O` displayed a melting point of 189 to 191 °C. `CCOc1c(-c2ccc(N(C)C)c(O)c2)c(=O)c1=O` yielded a melting point above 182 °C. Regarding `O=C(O)C(Cc1cc(Oc2c(Cl)cc(C(F)(F)F)cc2Cl)ccc1SC(F)(F)F)C(=O)O`, the melting point is 250 °C. In the case of `CC1=NN=C(c2ccc([N+](=O)[O-])cc2)c2cc(Cl)c(Cl)cc2C1` it was 231 to 233 °C; in that of `Brc1ccc2cc(SN3CCN(c4ccncc4)CC3)ccc2c1`, 200 to 202 °C.

Consider `O=c1c2c(Cc3ccccc3)n[nH]c2c2ccccc2n1-c1ccccc1`, for which the melting point is 255 to 257 °C. In turn, `c1cc(-n2cccn2)cc(-n2cnc3cc(-c4ccoc4)ccc32)c1` came in with a melting point of 170 to 173 °C. As to `CC1SC(=O)NN=C1c1ccc2c(c1)C(=NNc1ccc(Cl)cc1)C(=O)N2` (centres undefined), the melting point was 283 °C. For `Cc1ccc2c(c1)C=C(C(=O)O)C(C(F)(F)F)S2` (centres undefined), the melting point fell in the range of 181 to 184 °C. In the case of `O=C(O)C1CCN(Cc2ccc(Cl)c(Cl)c2)CC1` it was 232 °C; in that of `CCCCNS(=O)(=O)CC(O)C(O)C(CC1CCCCC1)NC(=O)c1ccccn1` (centres undefined), 167 to 170 °C; in that of `CC(C)c1c(Cl)nc(Cl)nc1Cl`, 69.4 °C.

For `O=C(O)CCCCCc1ccc(O)c(O)c1`, the melting point was 109 °C. In the case of `O=Cc1ccc(OCCn2ncc3ccccc3c2=O)cc1` it was 104 to 106 °C; in that of `CCn1c(=O)oc2ccc(Cl)cc21`, 75 to 78 °C; in that of `c1ccc2c(c1)CCc1ccc(-c3nnn[nH]3)cc1S2`, 205 °C. As for `O=C(CO)N1CCN(C(=O)CO)CC1`, the figure is 169 to 173 °C; as for `CC=CCN(C)c1ncnc2c1ncn2C1OC(CO)C(O)C1O` (centres undefined), 160 to 162 °C; as for `Cc1ccnn(-c2cccc(Cl)c2)c1=O`, 244 to 245 °C.

In turn, `CCN(CC)c1ccc(C(=O)c2ccccc2)c(O)c1` returned a melting point of 46 to 48 °C.
